From patent US7893031B2, “Neuronal differentiation inhibitor peptide and use thereof” (Toagosei Co., Ltd., priority 2005, dated 2011)
No end group written: not given here.

Test system: adipose stem cells procured from humans
Experiment: Evaluation of neuronal differentiation inhibitor activity of the synthetic peptides (immunostaining for MAPs and NeuN neuron markers, confocal laser microscopy)
Format: cell-based
Settings: culture of human adipose stem cells, 24 hours after peptide addition; for degree of neuronal differentiation (neuron markers MAPs and NeuN) when added together with VHL peptide: sample peptide added together with VHL peptide (comparative sample 1), each about 100 ng/mL
Experimental: Each sample obtained in example 1 was analyzed for the neuronal differentiation inhibitor activity.
In particular, each sample peptide together with the peptide of comparative sample 1 (hereinafter referred to as VHL peptide) was added to and incubated in a culture of adipose stem cells procured from humans. The addition concentration of each peptide was about 100 ng/mL. For comparison, a culture containing VHL peptide alone was incubated in a similar manner.
At 24 hours after peptide addition, evaluation was carried out by a standard immune antibody procedure. Specifically, MAPs ([…]) and NeuN (neuronal nuclei) were added as neuron markers, and the degree of neuronal differentiation was evaluated by confocal laser microscopy. MAPs is a marker that can stain (detect) broadly, from relatively immature neurons to mature neurons. NeuN is a marker that can specifically stain (detect) mature neurons.

Substance | degree of neuronal differentiation (neuron markers MAPs and NeuN) when added together with VHL peptide | degree of neuronal differentiation (neuron markers MAPs and NeuN) (VHL peptide alone, about 100 ng/mL)
YARAAARQARA-SLQTLCEISLMRNHS (YARAAARQARASLQTLCEISLMRNHS; not fully specified (C-terminus); printed as YARAAARQARA-SLQTLCEISLMRNHS) [Sample 3, PTD4 domain plus 15 N-terminal residues of the BC-box of S. cerevisiae elongin-A] | no significant neuronal differentiation was observed | –
YARAAARQARA-TLHQQCIRVLKNNID (YARAAARQARATLHQQCIRVLKNNID; not fully specified (C-terminus); printed as YARAAARQARA-TLHQQCIRVLKNNID) [Sample 1, PTD4 domain plus 15 N-terminal residues of the BC-box of human elongin-A] | no significant neuronal differentiation was observed | –
YARAAARQARA-TLKERCLQVVRSLVK (YARAAARQARATLKERCLQVVRSLVK) [VHL peptide, reference compound] | – | significant neuronal differentiation
YARAAARQARA-TLVSLCQTVLMSHID (YARAAARQARATLVSLCQTVLMSHID; not fully specified (C-terminus); printed as YARAAARQARA-TLVSLCQTVLMSHID) [Sample 2, PTD4 domain plus 15 N-terminal residues of the BC-box of C. elegans elongin-A] | no significant neuronal differentiation was observed | –
